Some test systems named below: 786-0 renal; CAKI-1 renal; HOP-62 NSCLC; OVCAR-5 ovarian; RPMI-8226 leukemia; SF-539 CNS; SK-MEL-5 melanoma; SK-OV-3 ovarian; SR leukemia.
Holding throughout (assay): growth of human tumour cells (NCI), 48 h

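Five concentrations, 48 hours, 96-well plates. Here, GI50 denotes the concentration required for 50% inhibition of growth. TGI: concentration producing complete growth inhibition.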 A value given as a limit tells only on which side of the number the result lay.

As for `Cc1ccc(S(=O)(=O)OCC/C(=C\[Si](C)(C)C)c2ccccc2)cc1`, the TGI in the assay on 786-0 renal, in the assay with CAKI-1 renal, in the assay on HOP-62 NSCLC, with OVCAR-5 ovarian, in the assay with RPMI-8226 leukemia and in the assay on SF-539 CNS was more than 100 µM throughout. Further, the TGI in the assay with SK-MEL-5 melanoma, in the assay on SK-OV-3 ovarian and with SR leukemia was more than 100 µM each time.
For the compound `CCc1cccc(C)c1NC(=O)CCc1nc(=S)[nH][nH]1`, the TGI in the assay on 786-0 renal, in the assay on CAKI-1 renal, in the assay on HOP-62 NSCLC, in the assay with OVCAR-5 ovarian, in the assay with RPMI-8226 leukemia and in the assay with SF-539 CNS was more than 100 µM throughout. In addition, the TGI in the assay with SK-MEL-5 melanoma, in the assay with SK-OV-3 ovarian and in the assay on SR leukemia was more than 100 µM in each case.
Take `COc1nc2c(c(O)c(C)c(=O)n2OC2OCC(OC(C)=O)C(OC(C)=O)C2OC(C)=O)c(=O)n1C` (stereo unspecified): the TGI with 786-0 renal, in the assay with HOP-62 NSCLC, with OVCAR-5 ovarian, in the assay with SF-539 CNS, in the assay with SK-MEL-5 melanoma and with SR leukemia was more than 100 µM throughout.
As to `O=c1/c(=C/c2ccccc2[N+](=O)[O-])sc2nnc(-c3cccnc3)n12`, the TGI in the assay on 786-0 renal was more than 100 µM; with CAKI-1 renal it was 2.78 µM; with HOP-62 NSCLC, more than 100 µM; in the assay with OVCAR-5 ovarian it was more than 100 µM; with RPMI-8226 leukemia, more than 100 µM; with SF-539 CNS it was more than 100 µM. Besides, the TGI in the assay with SK-MEL-5 melanoma and in the assay on SR leukemia was more than 100 µM in each case.
For `O=C1/C(=C\c2ccccc2)CN(C(=O)CCN2CCCCC2)C/C1=C/c1ccccc1`, the TGI amounted to 4.7 µM with 786-0 renal; 3.74 µM with CAKI-1 renal; 25.7 µM in the assay with HOP-62 NSCLC; 3.96 µM with OVCAR-5 ovarian; 0.244 µM in the assay on RPMI-8226 leukemia; 5.52 µM in the assay with SF-539 CNS. For the same compound, the values for the TGI in the assay on SK-MEL-5 melanoma, in the assay with SK-OV-3 ovarian and with SR leukemia were 3.3 µM, 9.77 µM and 14.5 µM, respectively.
As to `O=C(NC12CC3CCC1CC(C3)C2)[C@@H]1CCCN1C(=O)OCc1ccccc1` (stereo partly specified), the TGI with 786-0 renal, in the assay with HOP-62 NSCLC, in the assay on OVCAR-5 ovarian, in the assay with RPMI-8226 leukemia, in the assay on SF-539 CNS and in the assay on SK-OV-3 ovarian was more than 100 µM each time. In the assay on SR leukemia, this compound returned a TGI of more than 100 µM.
As to `COC(=O)CCC(NC(=S)N/N=C/c1cccs1)C(=O)OC` (stereo unspecified), the TGI in the assay on 786-0 renal, in the assay with HOP-62 NSCLC, in the assay with OVCAR-5 ovarian, in the assay with SF-539 CNS, in the assay on SK-MEL-5 melanoma and with SK-OV-3 ovarian was more than 100 µM in each case. Besides, the TGI with SR leukemia is more than 100 µM.
In the case of `O=C(NC1C(=O)NNC1c1cccc([N+](=O)[O-])c1)c1ccccc1` (stereo unspecified), the TGI in the assay with 786-0 renal, with HOP-62 NSCLC, with OVCAR-5 ovarian, with RPMI-8226 leukemia and in the assay on SK-MEL-5 melanoma was more than 100 µM throughout.
As for `O=C1NC(=O)c2c1n(Cc1ccccc1)c(=O)n2Cc1ccccc1`, the TGI in the assay with 786-0 renal, in the assay on CAKI-1 renal, in the assay with HOP-62 NSCLC, with OVCAR-5 ovarian, with RPMI-8226 leukemia and in the assay on SF-539 CNS was more than 100 µM each time. The TGI in the assay with SK-MEL-5 melanoma and with SK-OV-3 ovarian was more than 100 µM throughout.
On to `CCOC(=O)c1nc(C)oc1C(F)(F)F`, for which the TGI in the assay on 786-0 renal, in the assay with CAKI-1 renal, in the assay with HOP-62 NSCLC, in the assay on OVCAR-5 ovarian, in the assay with SF-539 CNS and in the assay with SK-OV-3 ovarian was more than 100 µM each time. In the assay on SR leukemia, the TGI is more than 100 µM.
As to `C[C@]12Cc3cn[nH]c3C(=O)C1CC[C@@H]1C2CC[C@@]2(C)C1CC[C@@H]2O` (stereo partly specified), the TGI in the assay with 786-0 renal, with CAKI-1 renal, with HOP-62 NSCLC, with OVCAR-5 ovarian, in the assay on RPMI-8226 leukemia and in the assay with SF-539 CNS was more than 100 µM each time. Besides, the TGI in the assay with SK-MEL-5 melanoma and in the assay on SK-OV-3 ovarian was more than 100 µM each time.
For `CCN(CC)Cc1cc(Nc2nc(NC3CCC(N(C)C)CC3)c3ccccc3n2)ccc1OC` (stereo unspecified), the GI50 was 6.67 µM with 786-0 renal; 30.9 µM with CAKI-1 renal; 8.63 µM in the assay with HOP-62 NSCLC; 5 µM in the assay with OVCAR-5 ovarian; 2.34 µM in the assay on RPMI-8226 leukemia; 3.3 µM in the assay on SF-539 CNS. Also, the figures for the GI50 in the assay on SK-MEL-5 melanoma and with SR leukemia were 1.54 µM and 2.13 µM, respectively. For the same compound, the TGI with 786-0 renal is 19.3 µM; with CAKI-1 renal, more than 100 µM; in the assay on HOP-62 NSCLC, 20.9 µM; in the assay on OVCAR-5 ovarian, 20.7 µM; with RPMI-8226 leukemia it was 6.63 µM; with SF-539 CNS it was 13.3 µM. Also, the results for the TGI in the assay on SK-MEL-5 melanoma and with SR leukemia were 2.87 µM and 4.74 µM, respectively.
`O=[N+]([O-])c1ccc(Cl)c2c([N+](=O)[O-])cccc12`: the TGI is more than 10 µM in the assay on 786-0 renal; more than 10 µM in the assay on HOP-62 NSCLC; more than 10 µM in the assay with RPMI-8226 leukemia; 5.91 µM with SF-539 CNS; more than 10 µM in the assay on SK-MEL-5 melanoma; 7.48 µM in the assay with SK-OV-3 ovarian. The compound further showed a TGI in the assay with SR leukemia of more than 10 µM.
On to `COc1cc([C@@H]2c3cc4c(cc3[C@@H](NC(=O)c3ccc(C#N)cc3)C3COC(=O)[C@@H]32)OCO4)cc(OC)c1O` (stereo partly specified), for which the TGI turned out to be 16 µM in the assay with 786-0 renal; 13.2 µM in the assay on CAKI-1 renal; 0.673 µM in the assay with HOP-62 NSCLC; 8.53 µM with OVCAR-5 ovarian; 11.7 µM in the assay on RPMI-8226 leukemia; 1.66 µM with SF-539 CNS. This compound yielded a TGI in the assay on SK-OV-3 ovarian of 2.87 µM.
As for `NNC(=O)C(=O)N/N=C1/CCCC1C(=O)CCC(=O)Nc1ccc(Cl)cc1` (stereo unspecified), the TGI with 786-0 renal, in the assay on CAKI-1 renal, in the assay on HOP-62 NSCLC, in the assay with OVCAR-5 ovarian, in the assay with RPMI-8226 leukemia and in the assay on SF-539 CNS was more than 100 µM each time. Also, the TGI in the assay with SK-MEL-5 melanoma, with SK-OV-3 ovarian and in the assay on SR leukemia was more than 100 µM each time.
`O=C1NC2=C(CCCCC/C2=N\O)C12CCCCCC2`: the TGI in the assay on 786-0 renal, in the assay on CAKI-1 renal, in the assay with HOP-62 NSCLC, with OVCAR-5 ovarian, in the assay on RPMI-8226 leukemia and in the assay on SF-539 CNS was more than 100 µM in each case. Moreover, the TGI with SK-MEL-5 melanoma, with SK-OV-3 ovarian and in the assay with SR leukemia was more than 100 µM in each case.
With `O=[N+]([O-])c1cccc(C2=NN(c3ccccc3)C3c4cc(Br)ccc4OCC23)c1` (stereo unspecified), the TGI with 786-0 renal, with HOP-62 NSCLC, in the assay on OVCAR-5 ovarian, with RPMI-8226 leukemia, in the assay on SF-539 CNS and in the assay on SK-MEL-5 melanoma was more than 100 µM in each case. Moreover, the TGI with SK-OV-3 ovarian was more than 100 µM.
With `Cc1nc2ccccc2nc1CC(=O)C(=O)Nc1ccc(Cl)cc1Cl`, the TGI with 786-0 renal, with CAKI-1 renal, in the assay on HOP-62 NSCLC, in the assay on OVCAR-5 ovarian, in the assay on RPMI-8226 leukemia and in the assay on SF-539 CNS was more than 100 µM in each case. For the same compound, the TGI in the assay on SK-MEL-5 melanoma and in the assay with SK-OV-3 ovarian was more than 100 µM each time.
For the compound `O=C1[C@@H]2C(c3c(Cl)cccc3Cl)=NO[C@@H]2C(=O)N1c1ccc(Cc2ccc(N3C(=O)[C@H]4C(c5c(Cl)cccc5Cl)=NO[C@H]4C3=O)cc2)cc1`, the TGI with 786-0 renal, in the assay on CAKI-1 renal, in the assay with HOP-62 NSCLC, in the assay on OVCAR-5 ovarian, in the assay on RPMI-8226 leukemia and with SF-539 CNS was more than 100 µM each time. Also, the TGI in the assay on SK-MEL-5 melanoma and in the assay with SK-OV-3 ovarian was more than 100 µM each time.
With `Cc1ccc2c(c1)CN1c3ccc(C)cc3CN2C1c1ccccc1O`, the TGI with 786-0 renal, with CAKI-1 renal, in the assay with HOP-62 NSCLC, in the assay on OVCAR-5 ovarian, in the assay with RPMI-8226 leukemia and with SF-539 CNS was more than 100 µM in each case. Besides, the TGI with SK-MEL-5 melanoma was 30.5 µM; in the assay with SK-OV-3 ovarian, more than 100 µM; with SR leukemia it was more than 100 µM.
`N#CC(C(=O)C(=O)Nc1c(Cl)cccc1Cl)c1ccccc1` (stereo unspecified): the GI50 in the assay on 786-0 renal, in the assay on CAKI-1 renal, in the assay with HOP-62 NSCLC, with OVCAR-5 ovarian, in the assay with RPMI-8226 leukemia and in the assay with SF-539 CNS was more than 100 µM each time. For the same compound, the GI50 in the assay with SK-MEL-5 melanoma and in the assay with SK-OV-3 ovarian was more than 100 µM each time. Besides, the TGI with 786-0 renal, with CAKI-1 renal, in the assay on HOP-62 NSCLC, with RPMI-8226 leukemia, in the assay on SF-539 CNS and with SK-MEL-5 melanoma was more than 100 µM each time. This compound had a TGI in the assay on SK-OV-3 ovarian of more than 100 µM.
Take `O=[N+]([O-])c1ccccc1C1SCc2nc3ccccc3n21` (stereo unspecified): the TGI with 786-0 renal was more than 100 µM; in the assay on CAKI-1 renal, more than 100 µM; in the assay with HOP-62 NSCLC, more than 100 µM; in the assay on SF-539 CNS, more than 100 µM; in the assay on SK-MEL-5 melanoma, 48.3 µM; in the assay on SK-OV-3 ovarian, more than 100 µM. In the assay on SR leukemia, this compound showed a TGI of more than 100 µM.
`COc1cc(Nc2cnc3ccc(C(F)(F)F)cc3n2)cc(OC)c1OC`: the TGI in the assay with 786-0 renal, in the assay with HOP-62 NSCLC, with OVCAR-5 ovarian, with RPMI-8226 leukemia, with SF-539 CNS and in the assay on SR leukemia was more than 100 µM in each case.

Values taken from PubChem BioAssay (NCI).
